What was measured:
MATIN [1] = assay: Post-emergence herbicidal action against MATIN; format: in vivo, Matricaria inodora; settings: dosage 20 g/ha
Outline: (§1)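 Percent herbicidal action is rated by eye about 3 weeks after treatment against untreated controls, where 100% means dead plants and 0% means like controls. Plants in sandy loam are sprayed on green parts at the one-leaf stage with aqueous WP or EC preparations at 600 to 800 l/ha plus 0.2% wetting agent.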

VIOTR [2] = assay: Post-emergence herbicidal action against VIOTR; format: in vivo, Viola tricolor
Outline: as §1

ABUTH [3] = assay: Pre-emergence herbicidal action against ABUTH; format: in vivo, Abutilon theophrasti
Outline: (§2)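 Seeds sown in sandy loam, soil-covered; compound sprayed on soil surface pre-emergence. Application: WP/EC, 600–800 l/ha, 0.2% wetting agent. Readout: visual % damage at 3 weeks.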

SETVI [4] = assay: Pre-emergence herbicidal action against SETVI; format: in vivo, Setaria viridis
Outline: as §2

PHBPU [5] = assay: Pre-emergence herbicidal action against PHBPU; format: in vivo, Pharbitis purpurea; settings: dosage 80 g/ha
Outline: as §2

AVEFA = assay: Pre-emergence herbicidal action against AVEFA; format: in vivo, Avena fatua
Outline: as §2

ALOMY [6] = assay: Pre-emergence herbicidal action against ALOMY; format: in vivo, Alopecurus myosuroides
Outline: as §2

VERPE [7] = assay: Pre-emergence herbicidal action against VERPE; format: in vivo, Veronica persica
Outline: as §2

POLCO = assay: Pre-emergence herbicidal action against POLCO; format: in vivo, Polygonum convolvulus
Outline: as §2

ECHCG [8] = assay: Pre-emergence herbicidal action against ECHCG; format: in vivo, Echinochloa crus-galli; settings: 80 g/ha
Outline: as §2

SETVI [9] = assay: Post-emergence herbicidal action against SETVI; format: in vivo, Setaria viridis
Outline: as §1

AMARE [10] = assay: Pre-emergence herbicidal action against AMARE; format: in vivo, Amaranthus retroflexus
Outline: as §2

ALOMY [11] = assay: Post-emergence herbicidal action against ALOMY; format: in vivo, Alopecurus myosuroides; settings: dosage 20 g/ha, visual assessment about 3 weeks after treatment vs untreated controls
Outline: as §1

VIOTR [12] = assay: Pre-emergence herbicidal action against VIOTR; format: in vivo, Viola tricolor
Outline: as §2

VERPE [13] = assay: Post-emergence herbicidal action against VERPE; format: in vivo, Veronica persica
Outline: as §1

AMARE [14] = assay: Post-emergence herbicidal action against AMARE; format: in vivo, Amaranthus retroflexus; settings: 20 g/ha, visual assessment about 3 weeks after treatment, 100% = plants have died, 0% = like control plants
Outline: as §1

ABUTH [15] = assay: Post-emergence herbicidal action against ABUTH; format: in vivo, Abutilon theophrasti; settings: visual assessment about 3 weeks after treatment vs untreated controls
Outline: as §1

MATIN [16] = assay: Pre-emergence herbicidal action against MATIN; format: in vivo, Matricaria inodora
Outline: as §2

ECHCG [17] = assay: Post-emergence herbicidal action against ECHCG; format: in vivo, Echinochloa crus-galli
Outline: as §1

PHBPU [18] = assay: Post-emergence herbicidal action against PHBPU; format: in vivo, Pharbitis purpurea
Outline: as §1

[19] = Setaria viridis, 504 h, dosage 20 g/ha
[20] = 80 g/ha, scored visually after 3 weeks vs untreated controls (100% = plants have died, 0% = like control plants)
[21] = 20 g/ha, scored visually after 3 weeks, 100% = plants have died, 0% = like control plants

Structure (SMILES): CSc1c(C(=O)Nc2nnnn2C)ccc(C(F)F)c1C(=O)NC1CC1 [Example 1-89]
- pest or weed control at 20 g/ha (MATIN [1]; Tripleurospermum inodorum, 504 h): 80%
- pest or weed control at 5 g/ha (VIOTR [2]; Viola tricolor, 504 h, 5 g/ha): 90%
- pest or weed control at 20 g/ha (VIOTR [2]; Viola tricolor, 504 h, 20 g/ha): 90%
- pest or weed control at 80 g/ha (ABUTH [3]; Abutilon theophrasti, 504 h, 80 g/ha, scored visually after 3 weeks vs untreated controls (100% = plants have died, 0% = like control plants)): 100%
- pest or weed control at 20 g/ha (ABUTH [3]; Abutilon theophrasti, 504 h, dosage 20 g/ha, scored visually after 3 weeks vs untreated controls, 100% = plants have died, 0% = like control plants, read-out: Pre-emergence action against ABUTH (herbicidal activity in percent)): 90%
- pest or weed control at 20 g/ha (SETVI [4]; [19]): 90%
- pest or weed control at 80 g/ha (SETVI [4]; Setaria viridis, 504 h, dosage 80 g/ha): 100%
- pest or weed control at 80 g/ha (PHBPU [5]; Ipomoea purpurea, 504 h): 80%
- pest or weed control at 80 g/ha (AVEFA; Avena fatua, 504 h, 80 g/ha, pre-emergence): 90%
- pest or weed control at 80 g/ha (ALOMY [6]; Alopecurus myosuroides, 504 h, 80 g/ha, pre-emergence, scored visually after 3 weeks vs untreated controls (100% = plants have died, 0% = like control plants)): 90%
- pest or weed control at 80 g/ha (VERPE [7]; Veronica persica, 504 h, dosage 80 g/ha): 90%
- pest or weed control at 80 g/ha (POLCO; Fallopia convolvulus, 504 h, dosage 80 g/ha): 80%
- pest or weed control at 80 g/ha (ECHCG [8]; Echinochloa crus-galli, 504 h): 100%
- pest or weed control at 5 g/ha (SETVI [9]; Setaria viridis, 504 h, dosage 5 g/ha): 90%
- pest or weed control at 20 g/ha (SETVI [9]; [19]): 90%
- pest or weed control at 20 g/ha (AMARE [10]; Amaranthus retroflexus, 504 h, 20 g/ha, scored visually after 3 weeks vs untreated controls, 100% = plants have died, 0% = like control plants): 100%
- pest or weed control at 80 g/ha (AMARE [10]; Amaranthus retroflexus, 504 h, 80 g/ha, scored visually after 3 weeks vs untreated controls, 100% = plants have died, 0% = like control plants): 100%
- pest or weed control at 20 g/ha (ALOMY [11]; Alopecurus myosuroides, 504 h): 90%
- pest or weed control at 80 g/ha (VIOTR [12]; Viola tricolor, 504 h, dosage 80 g/ha): 100%
- pest or weed control at 5 g/ha (VERPE [13]; Veronica persica, 504 h, 5 g/ha): 90%
- pest or weed control at 20 g/ha (VERPE [13]; Veronica persica, 504 h, 20 g/ha): 90%
- pest or weed control at 20 g/ha (AMARE [14]; Amaranthus retroflexus, 504 h): 100%
- pest or weed control at 5 g/ha (ABUTH [15]; Abutilon theophrasti, 504 h, dosage 5 g/ha): 90%
- pest or weed control at 20 g/ha (ABUTH [15]; Abutilon theophrasti, 504 h, dosage 20 g/ha): 90%
- pest or weed control at 20 g/ha (MATIN [16]; Tripleurospermum inodorum, 504 h, dosage 20 g/ha): 90%
- pest or weed control at 80 g/ha (MATIN [16]; Tripleurospermum inodorum, 504 h, dosage 80 g/ha): 100%

Structure (SMILES): CCc1c(C(=O)Nc2nnnn2C)ccc(C(F)(F)F)c1C(=O)NCC1CC1 [Example 1-274]
- Post-emergence action against MATIN in % (MATIN [1]): 80%
- Post-emergence action against VIOTR in % (VIOTR [2]; 20 g/ha): 80%
- Pre-emergence action against ABUTH (herbicidal activity) (ABUTH [3]; [20]): 100%
- Pre-emergence action against ABUTH (herbicidal activity in percent) (ABUTH [3]; dosage 20 g/ha, scored visually after 3 weeks vs untreated controls, 100% = plants have died, 0% = like control plants): 100%
- Pre-emergence action against SETVI in % (SETVI [4]; dosage 80 g/ha): 100%
- Pre-emergence action against PHBPU in % (PHBPU [5]): 90%
- Pre-emergence action against AVEFA (AVEFA; [21]): 80%
- Pre-emergence action against AVEFA in % (AVEFA; 80 g/ha, pre-emergence): 90%
- Pre-emergence action against ALOMY (ALOMY [6]; [21]): 80%
- Pre-emergence action against ALOMY (herbicidal activity) (ALOMY [6]; 80 g/ha, pre-emergence, scored visually after 3 weeks vs untreated controls (100% = plants have died, 0% = like control plants)): 90%
- Pre-emergence action against VERPE in % (VERPE [7]; dosage 20 g/ha): 90%
- Pre-emergence action against VERPE in % (VERPE [7]; dosage 80 g/ha): 90%
- Pre-emergence action against POLCO in % (POLCO; dosage 20 g/ha): 80%
- Pre-emergence action against POLCO in % (POLCO; dosage 80 g/ha): 90%
- Pre-emergence action against ECHCG in % (ECHCG [8]): 100%
- Post-emergence action against SETVI in % (SETVI [9]; dosage 20 g/ha): 90%
- Pre-emergence action against AMARE in % (AMARE [10]; 20 g/ha, scored visually after 3 weeks vs untreated controls, 100% = plants have died, 0% = like control plants): 100%
- Pre-emergence action against AMARE in % (AMARE [10]; [20]): 100%
- Post-emergence action against ALOMY in % (ALOMY [11]): 80%
- Pre-emergence action against VIOTR in % (VIOTR [12]; dosage 20 g/ha): 90%
- Pre-emergence action against VIOTR in % (VIOTR [12]; dosage 80 g/ha): 90%
- Post-emergence action against VERPE in % (VERPE [13]; 20 g/ha): 80%
- Post-emergence action at 20 g/ha against AMARE in % (AMARE [14]): 100%
- Post-emergence action against ECHCG in % (ECHCG [17]; dosage 5 g/ha): 80%
- Post-emergence action against ECHCG in % (ECHCG [17]; dosage 20 g/ha): 90%
- Post-emergence action against PHBPU in % (PHBPU [18]; dosage 5 g/ha): 80%
- Post-emergence action against PHBPU in % (PHBPU [18]; dosage 20 g/ha): 90%
- Post-emergence action against ABUTH in % (ABUTH [15]; dosage 20 g/ha): 80%
- Pre-emergence action against MATIN in % (MATIN [16]; dosage 20 g/ha): 100%
- Pre-emergence action against MATIN in % (MATIN [16]; dosage 80 g/ha): 100%

Source: patent publication US12655116B2, “Substituted isophthalic acid diamides” (Bayer Aktiengesellschaft, priority 2020, dated 2026)
